Data reported in paper PMC8412337, “Alpha-single chains of collagen type VI inhibit the fibrogenic effects of triple helical collagen VI in hepatic stellate cells” (PLoS ONE, 2021).

Key:
CFSC = experiment: Fibrosis-associated gene expression, quantitative real-time PCR; assay type: cell-based, rat
Protocol: 30 mg/l CVI, 133 mg/l of the monomeric alpha chains of CVI and/or TGF-β (2 ng/ml) were added after 24 h. […] Reverse transcribed complementary DNA templates were amplified by quantitative real-time polymerase chain reaction (PCR; Roche Diagnostics, Mannheim, Germany) using fluorogenic probes labeled with 6-carboxy-fluorescein and 6-carboxy-tetramethylrhodamin (Sigma- Genosys, Steinheim, Germany) and primer pairs (Invitrogen, Karlsruhe, Germany) specific for fibrosis-associated genes (for sequences see S2 Table). Gene expressions were normalized to glyceraldehyde phosphate dehydrogenase (GAPDH).

[1] = system: Bax and Bcl-2 in activated HSCs; experiment: Western-blot analysis of Bax and Bcl-2; assay type: cell-based, rat; conditions: densitometry, three independent experiments
Protocol: Dislodged cells were centrifuged at 800 x g/10 min and lysed with 100 μl lysis buffer. The protein concentration was determined using NanoOrange® Protein Quantitation Kit (Life Technologies) according to the manufacturer’s instructions. Briefly, protein solutions were mixed with the diluted NanoOrange reagent in 1.5 ml polypropylene tubes and heated at 95°C for 10 min in a thermomixer (Peqlab, Erlangen, Germany). Tubes were centrifuged and 200 μl of each sample were transferred to a black 96 well flat-bottom plate (Greiner BioOne, Frickenhausen, Germany). The emitted fluorescence was assessed at 570 nm in a SpectraMax Gemini EM (Molecular Devices, Biberach an der Riß, Germany). Protein concentrations were calculated from a bovine serum albumin standard curve. Equivalent amounts (10–50 μg) of protein were used in […]. Sample buffer (1:1) was added and the aliquots (20 μl final volume) were boiled for 5 min and subjected to 12% SDS-PAGE. After blocking for 1 h at room temperature in 10 mmol Tris-HCl, pH 7.5, 100 mmol NaCl, containing 0.1% Tween 20 and 3% bovine serum albumine (BSA), nitrocellulose-membranes were incubated either with polyclonal rabbit anti-rat antibodies to Bax (1:1000, sc-493), Bcl-2 (1:1000, sc783, both Santa Cruz, Santa Cruz, USA), α-actin (1:4000, A2547, Sigma) or β-actin (1:10,000, A5441, Sigma). Membranes were then washed in 10 mmol Tris-HCl, 100 mmol NaCl, 0.1% Tween 20, pH 7.5, and incubated with anti-rabbit IgG coupled to peroxidase (1:1000, A4416, Sigma) for 1 h at room temperature or directly developed (RC20H). Bands were detected with the ECL chemiluminescence reagent (Amersham-Pharmacia, Freiburg, Germany). After stripping in 0.1 M glycin-HCl, pH 2, for 20 min at room temperature, membranes were reprobed with appropriate primary and secondary antibodies. Band intensities were analyzed by densitometry and normalized to β-actin.

primary rat HSC [2] = experiment: Cell Death Detection ELISA (oligonucleosomal DNA fragments); assay type: cell-based; conditions: OD of sample divided by OD of 10% FBS group, three independent experiments
Protocol: 10^5 cells were seeded in 6-well plates and treated with starving medium or medium plus CI, CVI or 10% FBS. After 24 or 48 h floating and adherent cells were pooled, and lysed with 500 μl of 1% SDS, 10 mM Tris, pH 7.4 (lysis buffer), for 30 min at 4°C. Lysed cells were transferred to 1.5 ml Eppendorf tubes and centrifuged at 13,000 rpm for 20 min, to separate low molecular weight DNA (oligonucleosome-sized fragments derived from apoptotic cells) from high molecular weight DNA (from viable cells). 400 μl of the supernatant containing oligonucleosomes were transferred to another Eppendorf tube and diluted 1:5 with lysis buffer. 100 μl aliquots were used for the Cell Death Detection ELISA, which was performed according to the manufacturer’s instructions (Boehringer Mannheim, Germany). In brief, antibodies against histones were coated onto 96-wells, 100 μl lysate-samples containing oligonucleotides and histones were added and incubated for one hour. After washing, wells were incubated with anti-double strand DNA antibody coupled to peroxidase for one hour. After reaction with peroxidase substrate, absorbance was measured at 405 nm using an ELISA reader. Background values (lysis-buffer alone) were subtracted, and results are shown as enrichment factor [enrichment factor: OD (optical density) of the sample (apoptotic cells) divided by the OD of the corresponding control (viable cells, 10% FBS-group). A defined positive control was prepared using a hypertonic buffer, containing 10 mM Tris, 400 mM NaCl, 5 mM CaCl2 and 10 mM MgCl2, instead of starving medium.

primary rat HSCs = experiment: [3H]-thymidine incorporation, de-novo DNA synthesis; assay type: cell-based; conditions: primary rHSCs
primary rat HSC [3] = experiment: DNA laddering (agarose gel electrophoresis); assay type: cell-based; conditions: after 24 h; 30 μg/ml CVI; serum-starved primary rat HSC
Protocol: Cells were treated 24 h with 0% FBS, CI, CVI or 10% FBS. Equal cell numbers (1.5x10^6) were used to detect oligonucleosomes using the Apoptotic DNA Ladder Kit (Boehringer Mannheim, Germany) according to the manufacturer’s instructions. The isolated DNA from each group was electrophoresed on a 1.5% Agarose-Gel at 75 V for 1.5 hours, stained with ethidium bromide and visualized via an UV light source (302 nm).

CVI: Human collagen VI isolated from placentas by pepsin digestion; triple helical, soluble
kinetics of CI expression compared with TGF-β (CFSC; CFSC, medium containing 0.2% FBS, S3 Fig): slightly decreased and delayed | αSMA, CI and TGF-β expression (CFSC; serum-starved CFSC, 30 mg/l CVI, 24 h, qPCR normalized to GAPDH): potently induced | reduction of the expression of MMP-3 (CFSC; serum-starved CFSC, 24 h, TGF-β 2 ng/ml, CVI 30 mg/l, qPCR normalized to GAPDH): only slightly reduced | expression of TIMP-1 (CFSC; serum-starved CFSC, 24 h, qPCR normalized to GAPDH): stimulated the expression of TIMP-1 | Bax to Bcl-2 ratio ([1]; 24 hours culture after serum starvation): 1.0 | Bax protein level, fold lower compared to the medium or CI group ([1]; 24 hours, p<0.05): 6-7 fold | enrichment factor of oligonucleosomal fragments (primary rat HSC [2]; after 24 hours): 2 | enrichment factor of oligonucleosomal fragments (primary rat HSC [2]; after 48 hours): 6 | de-novo DNA synthesis ([3H]-thymidine incorporation) (primary rat HSCs; CVI at 10 μg/ml, within 24 hours, three independent experiments): stimulated a robust de-novo DNA synthesis | de-novo DNA synthesis ([3H]-thymidine incorporation) at increasing concentration (primary rat HSCs; CVI from 10 μg/ml up to 100 μg/ml, concentration dependent): equaling the effects of 10% FBS | apoptosis-associated DNA laddering (primary rat HSC [3]): only faint
